Experimental data as given in patent US20230240297A1, “SELECTIVE HERBICIDES BASED ON SUBSTITUTED ISOXAZOLIN CARBOXAMIDES AND CYPROSULFAMIDE” (Bayer Aktiengesellschaft, priority 2020, published 2023).

How the values were obtained:
[1] = system: ZEAMA Sileno; experiment: Tank-mix; post-emergence, crop damage with and without safener; format: in vivo, maize; conditions: for HER effect + SAF / HER effect: Final assessment; for HER effect: no safener
Description: Seeds of crops (spring wheat, TRZAS; spring barley, HORVS; maize, ZEAMA) were placed in sandy loam soil in peat pots, covered with soil and cultivated in a greenhouse under good growth conditions. Two to three weeks after sowing, the test plants were treated at the 1 to 3-leaf stage. The herbicide/safener active compound combinations according to the invention, formulated as wettable powders or emulsion concentrates, and, in parallel tests, the correspondingly formulated individual active compounds were sprayed onto the green parts of the plants in various dosages using an amount of water of 300 1/ha (converted).
The pots were returned under good growing conditions in a glasshouse and a visual assessment of herbicidal effects was made at intervals from 1 to 3 weeks after herbicide application (DAT = days after treatment). Assessment was on a percentage basis in comparison with untreated control plants (0% = no injury, 100% = complete kill).

[2] = system: ZEAMA Sileno; experiment: Seed treatment with safener; post-emergence herbicide application; format: in vivo, maize; set-up: Reduction [Difference]: scale not given here; conditions: Final assessment; for Reduction [%] / Reduction [Difference]: Cyprosulfamide 0.5 g a.i./kg seed; for Reduction [Difference]: damage without safener - damage with safener; for HER effect + SAF (crop damage with safener): Cyprosulfamide seed treatment 0.5 g a.i./kg seed; for HER effect (crop damage, herbicide without safener): no safener
Description: For the safener seed treatment, sufficient seeds of the respective crops (spring wheat, TRZAS; spring barley, HORVS; maize, ZEAMA) were weighed into screw top glass bottles approximately twice the volume of the seeds.
The specified safeners, formulated as wettable powder (WP) were weighed out so that the specified rates (g a.i./kg seed) would be obtained, dissolved in water (1 ml water per 10 g of seeds), and added to the seeds to produce a slurry.
The bottles were capped and then placed in an overhead shaker (set at medium speed for ca. 60 minutes) so that the seeds were evenly coated with the slurry. The bottles were uncapped and the seeds were either placed on paper and dried for an interval of 3-4 hours prior to sowing, or directly sown. Seeds were placed in sandy loam soil in pots of a diameter of 7-8 cm, covered with soil, and cultivated in a greenhouse under good growth conditions.
Post-emergence application of the specified herbicides was done when the plants had reached growth stage BBCH11-13, on two sets of plants:
a) seed treatment with safener, as described above b) no safener treatment
The herbicides were formulated as WP and sprayed onto the green parts of the plants as an aqueous suspension at an equivalent water application rate of 300 1/ha, with addition of wetting agent and adjuvants (e.g. Mero, 1.5 1/ha; ammonium sulphate, 2 kg/ha)
After application, the test plants were kept in the greenhouse under good growth conditions.
Values in the table below are mean values of at least 2 replicates.

[3] = HER 8 g a.i./ha, cyprosulfamide 50 g a.i./ha
[4] = HER 32 g a.i./ha, cyprosulfamide 100 g a.i./ha
[5] = HER dose 8 g a.i./ha + cyprosulfamide 50 g a.i./ha tank-mix
[6] = HER dose 32 g a.i./ha + cyprosulfamide 100 g a.i./ha tank-mix

SMILES	Reduction [%] [1, 3]	Reduction [Difference] [1, 3]	Reduction [%] [1, 4]	Reduction [Difference] [1, 4]	HER effect + SAF [1, 5]	HER effect ([1]; HER dose 8 g a.i./ha)	HER effect + SAF [1, 6]	HER effect ([1]; HER dose 32 g a.i./ha)	Reduction [%] ([2]; HER dose 8 g a.i./ha)	Reduction [Difference] ([2]; HER dose 8 g a.i./ha)	HER effect + SAF (crop damage with safener) ([2]; HER dose 8 g a.i./ha)	HER effect (crop damage, herbicide without safener) ([2]; HER dose 8 g a.i./ha)	Reduction [%] ([2]; HER dose 32 g a.i./ha)	Reduction [Difference] ([2]; HER dose 32 g a.i./ha)	HER effect + SAF (crop damage with safener) ([2]; HER dose 32 g a.i./ha)	HER effect (crop damage, herbicide without safener) ([2]; HER dose 32 g a.i./ha)	Reduction [%] ([2]; HER dose 2 g a.i./ha)	Reduction [Difference] ([2]; HER dose 2 g a.i./ha)	HER effect + SAF (crop damage with safener) ([2]; HER dose 2 g a.i./ha)	HER effect (crop damage, herbicide without safener) ([2]; HER dose 2 g a.i./ha)	also measured
C=CC1(C(=O)NC2COC(C(=O)OC)C2)CC(c2cc(F)cc(F)c2)=NO1 (centres unmarked) [Example 1.69]	76%	70	73%	68	22%	92%	25%	93%	82%	75	17%	92%	75%	70	23%	93%					
COC(=O)C1C=CC(NC(=O)C2(C)CC(c3cc(Cl)cc(C#N)c3)=NO2)C1 (mixture of isomers) [Example 1.23]	60%	30	67%	47	20%	50%	23%	70%	100%	50	0%	50%	96%	67	3%	70%					
COC(=O)C1=CC(NC(=O)C2(C)CC(c3cc(F)cc(F)c3)=NO2)CC1 (centres unmarked) [Example 1.63]	73%	62	52%	46	23%	85%	42%	88%	85%	72	13%	85%	85%	75	13%	88%	100%	23	0%	23%	Reduction [%] ([1]; HER 2 g a.i./ha, cyprosulfamide 50 g a.i./ha): 87%; Reduction [Difference] ([1]; HER 2 g a.i./ha, cyprosulfamide 50 g a.i./ha, damage without safener - damage with safener): 20; HER effect + SAF ([1]; HER dose 2 g a.i./ha + cyprosulfamide 50 g a.i./ha tank-mix): 3%; HER effect ([1]; HER dose 2 g a.i./ha, 0% = no injury, 100% = complete kill): 23%
C=CCOC(=O)C1CC(NC(=O)C2(C)CC(c3cc(F)cc(F)c3)=NO2)CO1 (mixture of isomers) [Example 1.75]	62%	45	66%	58	28%	73%	30%	88%	100%	73	0%	73%	89%	78	10%	88%					
C=CC1(C(=O)NC2COC(C(=O)OCCCl)C2)CC(c2cc(F)cc(F)c2)=NO1 (mixture of isomers) [Example 1.82]									89%	83	10%	93%	84%	77	15%	92%	100%	28	0%	28%	
CC1(C(=O)NC2CC=C(C(=O)NS(C)(=O)=O)C2)CC(c2cc(F)cc(F)c2)=NO1 (mixture of isomers) [Example 1.61]									57%	47	35%	82%	44%	40	50%	90%					
